pEC50, pIC50: −log10 of the molar value.
How the values were obtained:
Type in all cases: biochemical
[1] = biological target: T1, Human MMP-2 catalytic domain (Homo sapiens, UniProt P08253, DEL222-396); assay: Fluorometric MMP-2 inhibition assay (MTS), catalytic domain
T1 construct: Human MMP-2 catalytic domain (residues 110-221, 397-455); made in house
Method: In vitro MMP-2 activity was then measured, using a fluorometric assay in a 384 well format. Human MMP-2 catalytic domain (residues 110-221, 397-455) (Feng et al., [2000]) was expressed in E. coli in form of inclusion bodies. The protein was refolded and then purified by means of Ni-NTA affinity and anion exchange chromatography. Inhibition assays were carried out in 50 mM Tris, 5 mM CaCl2, 300 mM NaCl, 20 μM ZnSO4, pH = 7.5 buffer. For inhibition studies the catalytic domain of the enzyme was pre-incubated with varying amount of inhibitor for 30 min. […] After 1 h incubation at 37°C the fluorescence was detected using a Wallac 1420 Victor2 microplate reader at 320 nm/405 nm Ex/Em wavelength. As an alternative substrate we also used 5-FAM-Pro-Leu-Gly-Leu-Dap(QXL™ 520)-Ala-Arg-NH2, where the fluorescence was detected at 485 nm/520 nm. For each inhibitor candidate, the percentage of inhibition was determined in duplicate experiments at six inhibitor concentrations, chosen to observe a 5–95% range of inhibition.
Since hydroxamic acids are reported as the primary zinc-binding motif, we intended to select such a library from the AMRI 200,000 member non-exclusive compound repository as a starting point of our drug discovery efforts. Since only a few compounds were available in the repository as hydroxamic acids and the conversion of acids to hydroxamic acids were not applicable to HT parallel synthesis, we decided first to select free acids from the AMRI's compound collection. […] The selected acids were screened in a fluorescent assay using a recombinant human MMP-2 catalytic fragment and a synthetic peptide substrate. […] The hydroxamic acid pairs of the previously measured acids were then tested.

[2] = biological target: MMP-13 (Homo sapiens, UniProt P45452); assay: MMP-13 inhibition (inhibitory profile); details: Table 2
Method: The compounds were measured for MMP-1, 2, 9, 13 to determine their inhibitory profile. Efficiency Index amplifies the two major required effects, selectivity against MMP-1 and the inhibitory activity.

[3] = biological target: T2, MMP-2 enzyme isolated from rat heart (Rattus norvegicus, UniProt P33436); assay: Gelatin zymography on cardiac MMP-2
T2 construct: we used full-length, active MMP-2 enzymes isolated from healthy young adult rat hearts; from tissue; host or cells: rat heart homogenate (healthy young adult rats)
T2 sequence (P33436 110-662): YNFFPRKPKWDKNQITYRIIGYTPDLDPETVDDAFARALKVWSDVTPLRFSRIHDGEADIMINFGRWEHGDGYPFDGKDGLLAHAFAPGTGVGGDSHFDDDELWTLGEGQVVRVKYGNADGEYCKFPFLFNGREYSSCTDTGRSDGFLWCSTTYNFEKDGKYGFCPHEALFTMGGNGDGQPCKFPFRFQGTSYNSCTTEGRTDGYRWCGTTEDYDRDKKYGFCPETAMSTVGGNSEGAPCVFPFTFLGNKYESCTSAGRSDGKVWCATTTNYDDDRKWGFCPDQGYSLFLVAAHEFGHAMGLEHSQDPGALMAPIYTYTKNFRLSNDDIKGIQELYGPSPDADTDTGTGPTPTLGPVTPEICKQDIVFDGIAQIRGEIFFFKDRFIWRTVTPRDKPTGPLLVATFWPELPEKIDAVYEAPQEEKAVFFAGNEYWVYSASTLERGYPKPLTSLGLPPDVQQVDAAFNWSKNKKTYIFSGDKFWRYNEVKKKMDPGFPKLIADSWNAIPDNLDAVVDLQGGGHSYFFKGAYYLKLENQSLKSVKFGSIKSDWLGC
Method: Gelatin zymography was performed as described previously (Kupai et al., [2010]; Bencsik et al., [2017]). MMP-2 was isolated from rat heart homogenates as follows: 50 μg protein/lane were loaded and separated by electrophoresis under non-reducing conditions on an 8% SDS-polyacrylamide gels copolymerized with 2 mg/ml gelatin from porcine skin (Sigma-Aldrich; St. Louis, MO). After electrophoresis, gels were washed in 2.5% Triton-X 100 with gentle agitation and then incubated for 20 h at 37°C in zymography development buffer (50 mM Tris-HCl, pH 7.5, containing 5 mM CaCl2, 200 mM NaCl) in the presence or abscence of the MMP inhibitor compounds. Zymographic gels were stained in a 0.05% Coomassie Brilliant Blue R-250 solution followed by destaining, and then zymograms were scanned. MMP activity was detected as a colorless transparent zone on a blue background and the clear bands in the gel were quantified by densitometry using the Quantity One software (Bio-Rad, Hercules, CA). The obtained density values were measured and percentage of inhibition values were then calculated.
To confirm the MTS screen results, we tested the potential MMP inhibitor molecules on MMP-2 enzyme isolated from rat heart in vitro. Therefore, we applied the MMPIs at 1 and 100 μM final concentration in the enzyme's development buffer (Table 3).
After the chemical optimization of the novel MMP inhibitor lead candidates, we determined their IC50 values by using gelatin zymography. During zymographic analysis, we used full-length, active MMP-2 enzymes isolated from healthy young adult rat hearts. Subsequently, the cardio-cytoprotective effects of the selected candidates having the lowest IC50 values to MMP-2 were tested in cultured neonatal cardiac myocytes subjected to simulated I/R injury. Cardiac myocyte cell culture assay allowed a relatively high throughput biological efficacy testing (Gorbe et al., [2010]) of the selected lead candidates in several dose ranges at different levels of inhibition of MMP-2 activity.

T1 sequence (P08253 with tags, fused parts or gaps DEL222-396 limits assumed): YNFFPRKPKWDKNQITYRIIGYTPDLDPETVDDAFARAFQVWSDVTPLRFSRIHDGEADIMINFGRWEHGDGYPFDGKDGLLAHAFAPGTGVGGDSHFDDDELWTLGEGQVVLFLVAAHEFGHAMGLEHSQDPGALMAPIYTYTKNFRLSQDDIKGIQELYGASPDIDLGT

selectivity over MMP-1 ([1]; MMP-2 vs MMP-1, Table 2 values): 1.5 fold
pIC50 ([1]; Table 2): 5.18
pIC50 [2]: 5.74
inhibition at 100 µM ([3]; 100 μM, cardiac MMP-2, gelatin zymography, read-out: Inhibition (%)±SEM at 100 μM final MMP inhibitor concentration): 100%
pEC50 ([3]; concentration labelled EC50 in Supplementary Figure 4, doses calculated according to IC doses in vitro): 5.60
IC20 ([3]; concentration used in the ex vivo model, read-out: IC20 value (MMP-2 inhibition)): 1000 nM
pIC50 ([3]; most effective concentration in cell culture experiments, read-out: IC50 value (MMP-2 inhibition)): 5.60
SMILES: O=C(O)c1c[nH]c(CN(Cc2ccc(F)cc2)Cc2ccc(OCc3ccccc3)cc2)n1 [MMPI-1154]

From paper PMC5896266, “Development of Matrix Metalloproteinase-2 Inhibitors for Cardioprotection” (Frontiers in Pharmacology, 2018)
